In brackets after ≈: the same amount, converted by molar mass.
How the values were obtained:
[1] = system: Xanthomonas citri subsp. citri 57-2 (XcsM6), strB located in Tn5393; assay: Streptomycin MIC/MBC of the strains used; assay type: cell-based
[2] = system: Xanthomonas citri subsp. citri 10-5 (XscW2), WT; assay: Streptomycin MIC/MBC of the strains used; assay type: cell-based
[3] = system: Xanthomonas citri subsp. citri 27-13 (XcsM8), rpsL41 & strB double mutant; assay type: cell-based
[4] = system: wild type strain XccW2; assay type: in vivo, Xanthomonas citri subsp. citri
[5] = system: wild type strains of Xcc; assay: Streptomycin MIC, wild type strains; assay type: cell-based, Xanthomonas citri subsp. citri; settings: Xanthomonas citri, read-out: MICs of wild type strains of Xcc
[6] = system: Xanthomonas citri subsp. citri 8-4 (XcsM5), rpsL41 (K42R in S12); assay type: cell-based
[7] = system: Xanthomonas citri subsp. citri 19-18 (XscW1), WT; assay: Streptomycin MIC/MBC of the strains used; assay type: cell-based
[8] = system: SR strain XccM8; assay type: in vivo, Xanthomonas citri subsp. citri; settings: 50 μg/ml or 100 μg/ml, SR mutant XccM8, citrus leaves

With `[H]/N=C(/N)N[C@H]1[C@H](O)[C@@H](O)[C@H](O[C@@H]2O[C@@H](C)[C@](O)(C=O)[C@H]2O[C@@H]2O[C@@H](CO)[C@H](O)[C@@H](O)[C@@H]2NC)[C@@H](N/C(N)=N\[H])[C@@H]1O` [Streptomycin] the MBC [1] was 3670 µg/mL, the MIC [1] was 3330 µg/mL and the MIC [2] was 2 µg/mL. The MIC [3] was 3,000 μg/ml, the “delay of the first pustule formation” value ([4]; 50 μg/ml, wild type Xcc, citrus leaves (data not shown)) was “about 1 day” and the “days to form the first yellowish halo around the pustule (index 2)” value ([4]; 100 μg/ml, co-infiltrated with wild type Xcc into citrus leaves) was 10 days. For the same molecule, the “suppression of symptom development” value ([4]; wild type Xcc, citrus leaves, monitored 17 days after inoculation) was “suppressed up to 17 days”, the MIC [5] was 1 to 2 µg/mL (≈ 1.72 to 3.44 µM) and the MIC [6] was 6,000 μg/ml. The MIC [7] was 1 µg/mL and the “suppression of disease progress” value [8] was “did not suppress the disease progress”.
